Measured values published in US20040229791A1, “Compositions and methods of modulating TGF-beta activity by fatty acids” (priority 2002, published 2004).

System: Mv1Lu cells
Assay: [Methyl-3H]-thymidine incorporation assay, TGF-β2-induced growth inhibition
Type: cell-based, mink
Excerpt: The levels of TGF ? β and ? 2M* also increase dramatically. α2M* is capable of inhibiting TGF- ? activity by forming complexes with TGF- ? and thus preventing it from binding to TGF ? β receptors in cells involved. Fatty acids may potentiate TGF ? β activity by blocking complex formation of ? 2M* and TGF ? β under these conditions. To test this possibility, we determined the effects of arachidonic acid on ^125I-TGF- ? 2 binding (in the presence and absence of α2M*) to Mv1Lu cells. ? 2M* is known to inhibit TGF- ? 2 more strongly than TGF ? β1 binding to T receptors in cells (13). Various concentrations of ^125I-TGF- ? 2 were preincubated with 200 μg/ml of ? 2M* in the presence or absence of 30 μM arachidonic acid for 30 min prior to the performance of binding assays in Mv1Lu cells. […] The residual ^125I-TGF- ? binding associated with the cells after ? 2M* inhibition was mainly due to non-specific binding of ^125I-TGF- ? 2. […] In the presence of 200 μg/ml of ? 2M*, the dose-response curve of TGF ? β2 shifted to the right. […] Addition of arachidonic acid at 0.5 and 1 μM reversed the inhibitory effect of. α2M* on TGF- ? 2-induced growth inhibition as measured by [methyl-^3H]-thymidine incorporation.
[Methyl-^3H]-Thymidine Incorporation Assay—Mv1Lu cells were plated at a cell density of 7.5×10^4 cells/well in DMEM containing 0.1% fetal calf serum in 48-well cluster dishes. After 4 hr at 37° C. (to allow cell adherence), cells were treated with various concentrations of TGF- ? 2,2M* (0 or 200 μg/ml) and arachidonic acid ([…] or 1 μM). After 1h at 37° C., cells were pulsed with 1 μCi/ml [methyl-^3H]-thymidine for 2 hr. The [methyl-^3H]-th incorporation into cellular DNA was carried out in triplicate as described previously (23).

For CCCCC/C=C\C/C=C\C/C=C\C/C=C\CCCC(=O)O [arachidonic acid], the “reversal of the inhibitory effect of α2M* on TGF-β2-induced growth inhibition” value (0.5 μM arachidonic acid, 200 μg/ml α2M*) was “reversed”, the “reversal of the inhibitory effect of α2M* on growth inhibition induced by 1 pM TGF-β2” value (1 μM arachidonic acid, 200 μg/ml α2M*) was “almost completely reversed” and the “effect on growth inhibition induced by TGF-β2 in the absence of α2M*” value (absence of α2M*) was “did not affect growth inhibition”.
